Data reported in US20230159510A1, “NOVEL PRMT5 INHIBITORS” (AMGEN INC., priority 2020, published 2023).
Read-outs that look alike come from different tables or passages of the source.

How the values were obtained:
HCT116 WT cells = assay: HCT116 proliferation assay, WT cells (CellTiter-Glo, 6 days); format: cell-based; conditions: Homo sapiens, HCT-116, 144 h, read-out: Prolif_HCT116-WT IC50
Outline: (§1)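 Readout is CellTiter-Glo luminescence after 6 days of drug exposure at 37 °C. Compounds tested as 8–9 point, 3-fold dilution series starting at 1 or 10 µM, versus DMSO only, on cells in RPMI 1640 with 10% FBS.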

HCT116 MTAP null cells = assay: HCT116 proliferation assay, MTAP null cells (CellTiter-Glo, 6 days); format: cell-based; conditions: 144 h, read-out: Protif_ HCT116-MTAP null IC50
Outline: as §1

PRMT5/MEP50 = PRMT5/MEP50 (Homo sapiens, UniProt O14744); assay: MTase-Glo methyl transferase assay, Method B (FL-Histone H2A, 1 µM MTA, 1 h pre-incubation); format: biochemical; design: purchased Reaction Biology Corp RD-11-292; conditions: read-out: PRMT5 MTase Glo Ki (nM, Meth. B)
Outline: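 PRMT5/MEP50 (4 nM) was pre-incubated 1 h with compound, 5 µM SAM and 1 µM MTA, then started with 2.5 µM FL-Histone H2A in Tris pH 8.0 buffer. After 20 h at room temperature, SAH was detected by MTase-Glo luminescence, and IC50/KI were fitted from dose-response curves.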

Chain of PRMT5/MEP50 (O14744 2-637 limits assumed): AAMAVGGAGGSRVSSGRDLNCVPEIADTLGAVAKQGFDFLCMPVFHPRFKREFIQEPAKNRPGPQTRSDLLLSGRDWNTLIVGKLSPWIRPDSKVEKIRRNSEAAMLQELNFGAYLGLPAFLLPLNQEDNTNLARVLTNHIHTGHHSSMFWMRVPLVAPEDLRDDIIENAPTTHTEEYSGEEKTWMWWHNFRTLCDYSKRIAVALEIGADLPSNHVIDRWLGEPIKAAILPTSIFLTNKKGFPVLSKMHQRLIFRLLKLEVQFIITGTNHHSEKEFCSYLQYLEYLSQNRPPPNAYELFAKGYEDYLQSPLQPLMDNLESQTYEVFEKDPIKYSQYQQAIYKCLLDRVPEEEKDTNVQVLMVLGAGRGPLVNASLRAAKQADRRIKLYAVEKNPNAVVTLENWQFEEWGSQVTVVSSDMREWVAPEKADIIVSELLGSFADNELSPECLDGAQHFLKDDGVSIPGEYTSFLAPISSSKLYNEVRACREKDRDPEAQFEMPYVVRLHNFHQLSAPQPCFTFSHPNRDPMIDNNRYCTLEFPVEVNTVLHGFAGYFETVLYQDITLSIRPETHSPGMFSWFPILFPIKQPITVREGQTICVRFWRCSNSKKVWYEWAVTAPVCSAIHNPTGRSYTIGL
Chain of PRMT5/MEP50 (Q9BQA1 2-342 partner limits assumed): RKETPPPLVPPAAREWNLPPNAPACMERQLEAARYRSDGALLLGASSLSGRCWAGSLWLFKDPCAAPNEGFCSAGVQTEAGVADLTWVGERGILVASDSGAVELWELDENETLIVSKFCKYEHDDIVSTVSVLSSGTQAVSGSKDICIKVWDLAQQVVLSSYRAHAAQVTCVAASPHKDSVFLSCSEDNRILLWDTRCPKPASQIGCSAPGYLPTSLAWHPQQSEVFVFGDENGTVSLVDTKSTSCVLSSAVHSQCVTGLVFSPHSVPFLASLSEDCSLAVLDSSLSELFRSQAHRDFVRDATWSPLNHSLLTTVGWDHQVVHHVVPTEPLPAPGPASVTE

| SMILES | IC50 (HCT116 WT cells) | IC50 (HCT116 MTAP null cells; HCT116-MTAP null) | Ki (PRMT5/MEP50) | IC50 (HCT116 MTAP null cells) |
| --- | --- | --- | --- | --- |
| COC(CN(Cc1ccc(C(F)(F)F)cn1)C(=O)c1ccc2nc(N)c(C)cc2c1)C(F)(F)F (stereo not drawn) [Example 611, 2-amino-3-methyl-N-(3,3,3-trifluoro-2-methoxypropyl)-N-((5-(trifluoromethyl)pyridin-2-yl)methyl)quinoline-6-carboxamide] | > 1000 nM | 70 nM | 3 to 7 nM |  |
| Cc1cc2cc(C(=O)N(Cc3ccc(CO)c(F)c3)Cc3ccc(C(F)(F)F)cn3)ccc2nc1N [Example 566, 2-amino-N-[[3-fluoro-4-(hydroxymethyl)phenyl]methyl]-3-methyl-N-[[5-(trifluoromethyl)-2-pyridyl]methyl] quinoline-6-carboxamide] | > 10000 nM | 277 nM | 4.58 nM |  |
| Cc1cc2cc(C(=O)N(Cc3ccn4ccnc4c3)Cc3ccc(C(F)(F)F)cn3)ccc2nc1N [Example 621, 2-amino-N-(imidazo[1,2-a]pyridin-7-ylmethyl)-3-methyl-N-((5-(trifluoromethyl)pyridin-2-yl)methyl)quinoline-6-carboxamide] | > 1000 nM | 133 nM | 3.97 nM |  |
| Cc1cc2cc(C(=O)N(Cc3cnc4[nH]ccc4c3)Cc3ccc(C(F)(F)F)cn3)ccc2nc1N [Example 598, 2-amino-3-methyl-N-(1H-pyrrolo [2,3-b]pyridin-5-ylmethyl)-N-[[5-(trifluoromethyl)-2-pyridyl]methyl]quinoline-6-carboxamide] | > 1000 nM | 180 nM | 2.44 nM |  |
| Cc1cc2cc(C(=O)N(Cc3ccc(C(F)(F)F)cn3)Cc3cc4c([nH]c3=O)CCC4)ccc2nc1N [Example 599, 2-amino-3-methyl-N-[(2-oxo-1,5,6,7-tetrahydrocyclopenta[b]pyridin-3-yl)methyl]-N-[[5-(trifluoromethyl)-2-pyridyl]methyl] quinoline-6-carboxamide] | > 1000 nM | 280 nM | 3.12 nM |  |
| Cc1cc2cc(C(=O)N(Cc3ccc(N4CCC(C(N)=O)CC4)cc3)Cc3scnc3C)ccc2nc1N [Example 572, 2-amino-N-(4-(4-carbamoylpiperidin-1-yl)benzyl)-3-methyl-N-((4-methylthiazol-5-yl)methyl)quinoline-6-carboxamide] | > 10000 nM | 608 nM | 3.48 nM |  |
| Cc1cc2c(nc1N)CCC(C(=O)N(Cc1ccc(C(F)(F)F)cn1)Cc1ccnc3[nH]ccc13)C2 (stereo not drawn) [Example 581, N-((1H-pyrrolo[2,3-b]pyridin-4-yl)methyl)-2-amino-3-methyl-N-((5-(trifluoromethyl)pyridin-2-yl)methyl)-5,6,7,8-tetrahydroquinoline-6-carboxamide] | > 1000 nM | 840 nM | 16 nM |  |
| Cc1cc2cc(C(=O)N(Cc3ccc(C(F)(F)F)cn3)C3CC(C)c4ccccc43)ccc2nc1N (stereo not drawn) [Example 595, 2-amino-3-methyl-N-(3-methyl-2,3-dihydro-1H-inden-1-yl)-N-((5-(trifluoromethyl)pyridin-2-yl)methyl)quinoline-6-carboxamide] | 8200 nM | 990 nM | 21.5 nM |  |
| Cc1cc2cc(C(=O)N(Cc3ccc(C(F)(F)F)cn3)CC(C)C(F)(F)F)ccc2nc1N (stereo not drawn) [Example 591, 2-amino-3-methyl-N-(3,3,3-trifluoro-2-methylpropyl)-N-((5-(trifluoromethyl)pyridin-2-yl)methyl)quinoline-6-carboxamide] | > 1000 nM |  | 16.5 nM | 456 nM |
| Cc1ccc2c(c1)C(N(Cc1ccc(C(F)(F)F)cn1)C(=O)c1ccc3nc(N)c(C)cc3c1)CC2 (stereo not drawn) [Example 624, 2-amino-3-methyl-N-(6-methyl-2,3-dihydro-1H-inden-1-yl)-N-((5-(trifluoromethyl)pyridin-2-yl)methyl)quinoline-6-carboxamide] | > 1000 nM | 187 nM | 5.19 nM |  |
| Cc1cc2cc(C(=O)N(Cc3ccc(C#N)cn3)C3CCCC3C#N)c(F)cc2nc1N (stereo not drawn) [Example 703, 2-amino-N-(2-cyanocyclopentyl)-N-[(5-cyano-2-pyridyl)methyl] -7-fluoro-3-methyl-quinoline-6-carboxamide] | 2300 nM | 222 nM | 5.62 nM |  |
| Cc1cc2cc(C(=O)N(Cc3ccc(C(F)(F)F)cn3)C3COc4c3ccc(C)c4C)ccc2nc1N (stereo not drawn) [Example 610, 2-amino-N-(6,7-dimethyl-2,3-dihydrobenzofuran-3-yl)-3-methyl-N-((5-(trifluoromethyl)pyridin-2-yl)methyl)quinoline-6-carboxamide] | > 1000 nM | 540 nM | 9.6 nM |  |

The next lines start with results.

| IC50 (HCT116 WT cells) | IC50 (HCT116 MTAP null cells; HCT116-MTAP null) | Ki (PRMT5/MEP50) | SMILES | IC50 (HCT116 MTAP null cells) |
| --- | --- | --- | --- | --- |
| > 1000 nM | 78 nM | 2.89 nM | Cc1cc2cc(C(=O)N(Cc3ccc(C(F)(F)F)cn3)CC(C)C3CC3)ccc2nc1N (stereo not drawn) [Example 575, 2-amino-N-(2-cyclopropylpropyl)-3-methyl-N-((5-(trifluoromethyl)pyridin-2-yl)methyl)quinoline-6-carboxamide] |  |
| 400 nM | 44 nM | 5.46 nM | Cc1nc2c(s1)C(N(Cc1ccc(C(F)(F)F)cn1)C(=O)c1ccc3nc(N)c(C)cc3c1)CCC2 (stereo not drawn) [Example 604, 2-amino-3-methyl-N-(2-methyl-4,5,6,7-tetrahydrobenzo[d]thiazol-7-yl)-N-((5-(trifluoromethyl)pyridin-2-yl)methyl)quinoline-6-carboxamide] |  |
| > 1000 nM | 340 nM | 7.56 nM | Cc1cc2cc(C(=O)N(Cc3ccc(C(F)(F)F)cn3)C3CCCC(O)C3)ccc2nc1N (stereo not drawn) [Example 612, 2-amino-N-(3-hydroxycyclohexyl)-3-methyl-N-((5-(trifluoromethyl)pyridin-2-yl)methyl)quinoline-6-carboxamide] |  |
| > 1000 nM | 455 nM | 3.76 nM | Cc1cc2cc(C(=O)N(Cc3ccc(C(F)(F)F)cn3)CC3CCC3)ccc2nc1N [Example 562, 2-amino-N-(cyclobutylmethyl)-3-methyl-N-[[5-(trifluoromethyl)-2-pyridyl]methyl]quinoline-6-carboxamide] |  |
| > 1000 nM | 404 nM | 5.56 nM | Cc1cc2cc(C(=O)N(Cc3ccc(C(F)(F)F)cn3)C3CCc4[nH]ncc4C3)ccc2nc1N (stereo not drawn) [Example 672, 2-amino-3-methyl-N-(4,5,6,7-tetrahydro-1H-mdazol-5-yl)-N-[[5-(trifluoromethyl)-2-pyridyl]methyl] quinoline-6-carboxamide] |  |
| > 3200 nM | 370 nM | 7.26 nM | Cc1cc2cc(C(=O)N(Cc3ccc(C(F)(F)F)cn3)C3CCc4sc(Cl)cc43)ccc2nc1N (stereo not drawn) [Example 607, 2-amino-N-(2-chloro-5,6-dihydro-4H-cyclopenta[b]thiophen-4-yl)-3-methyl-N-((5-(trifluoromethyl)pyridin-2-yl)methyl)quinoline-6-carboxamide] |  |
| > 1000 nM | 540 nM | 26.8 nM | Cc1cc2cc(C(=O)N(Cc3ccc(C(F)(F)F)cn3)[C@@H]3c4ccccc4C[C@H]3O)ccc2nc1N [Example 609, 2-amino-N-((1R,2R)-2-hydroxy-2,3-dihydro-1H-inden-1-yl)-3-methyl-N-((5-(trifluoromethyl)pyridin-2-yl)methyl)quinoline-6-carboxamide] |  |
